The values below come from publication PMC5011342, “A high throughput drug screening assay to identify compounds that promote oligodendrocyte differentiation using acutely dissociated and purified oligodendrocyte precursor cells” (BMC Research Notes, 2016).

Like-named read-outs stand apart in the source and are kept apart here.

Series [1] deals with acutely dissociated and purified rat OPCs. As to the kind of experiment: Acute OL differentiation assay (MBP expression/cell, immunofluorescent image quantification). Format: cell-based. The settings on record: Rattus norvegicus; for activation at 0.4 µM: 0.4 uM test compound, read-out: OL differentiation, 0.4 uM (% Quet). An outline of the steps: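 Oligodendrocyte precursor cells were enriched from P6-P7 Sprague–Dawley rat brains by immunopanning (RAN-2 and GalC depletion, O4 selection), plated at 5000 cells/well in serum-free, mitogen-free differentiation media on PDL/laminin 96-well view plates, centrifuged at 200×g, and pre-incubated 1–2 h before test compounds were added in quadruplicate. On DIV4, cells were fixed, stained for MBP and DAPI, imaged automatically, and MBP expression per cell was quantified.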

The test system of series [2] is expanded OPCs. The series is described as follows: cells. The following applies: for viability at 0.1 µM / viability at 1 µM / viability at 10 µM: Rattus norvegicus, 72 h; for 0.1 µM (% DMSO) / 1 µM (% DMSO) / 10 µM (% DMSO): alamarBlue viability of expanded OPCs, relative to DMSO control; for 0.1 µM (% DMSO): compound at 0.1 µM; for 1 µM (% DMSO): compound at 1 µM; for 10 µM (% DMSO): compound at 10 µM. In short, it runs like this:
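Expanded OPCs seeded at 10,000 cells/well in differentiation media, then exposed to NCC library compounds at 10, 1 and 0.1 µM (quadruplicate, 0.1% DMSO) for three days. Viability read as alamarBlue fluorescence (560/590 nm) after 4 h at 37 °C; tunicamycin 5 ng/ml served as toxicity control.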
On the technique in general: The colour change of resazurin is a common sign of viable cells or microbes.

The mark [3] stands for this setting: test compound at 2 uM, MBP expression relative to quetiapine, NCC library screen, sheet "All OLga data", read-out: 2 uM (% Quet).
The mark [4] stands for this setting: test compound at 10 uM, MBP expression relative to quetiapine, NCC library screen, sheet "All OLga data", read-out: 10 uM (% Quet).
[5] abbreviates: test compound at 2 uM, NCC library screen, sheet "All OLga data", relative to quetiapine, read-out: 2 uM (% Quet).
Where [6] appears, read: test compound at 10 uM, NCC library screen, sheet "All OLga data", relative to quetiapine, read-out: 10 uM (% Quet).
Where [7] appears, read: read-out: 0.1 µM (% DMSO), alamarBlue viability, NCC library compound at 0.1 µM, sheet "All Tox data".
Where [8] appears, read: read-out: 1 µM (% DMSO), alamarBlue viability, NCC library compound at 1 µM, sheet "All Tox data".
Where [9] appears, read: read-out: 10 µM (% DMSO), alamarBlue viability, NCC library compound at 10 µM, sheet "All Tox data".
The mark [10] stands for this setting: relative to quetiapine, sheet "All OLga data".
Where [11] appears, read: 2 uM test compound, relative to quetiapine, sheet "All OLga data", read-out: OL differentiation, 2 uM (% Quet).
[12] abbreviates: read-out: 0.1 µM (% DMSO), alamarBlue viability of expanded OPCs, compound at 0.1 µM, sheet All Tox data.
Where [13] appears, read: read-out: 1 µM (% DMSO), alamarBlue viability of expanded OPCs, compound at 1 µM, sheet All Tox data.
[14] abbreviates: read-out: 10 µM (% DMSO), alamarBlue viability of expanded OPCs, compound at 10 µM, sheet All Tox data.
[15] abbreviates: 10 uM test compound, relative to quetiapine, sheet "All OLga data", read-out: OL differentiation, 10 uM (% Quet).

For the compound `Oc1ccc2c3c1O[C@H]1[C@@H](O)CC[C@@]4(O)[C@@H](C2)N(CC2CCC2)CC[C@]314` [Nalbufina], the activation at 2 µM in series [1] (read-out: OL differentiation, 2 uM (% Quet)) was -0.9%. Also, in series [1] (read-out: OL differentiation, 10 uM (% Quet)), the activation at 10 µM came to 19.7%. Further, the viability at 0.1 µM in series [2] (read-out: 0.1 µM (% DMSO)) was 99%. Also, the viability at 1 µM in series [2] (read-out: 1 µM (% DMSO)) amounted to 98.8%. The viability at 10 µM in series [2] (read-out: 10 µM (% DMSO)) is 99.1%.

In the case of `CCn1cc(C(=O)O)c(=O)c2ccc(C)nc21` [Nalidixic Acid], the activation at 2 µM in series [1] (setting [3]) is -14.9%. Also, the activation at 10 µM in series [1] (setting [4]) is -17.1%. Moreover, in series [2], the “0.1 µM (% DMSO)” value was 93.0 % DMSO, the “1 µM (% DMSO)” value is on record as 93.1 % DMSO and the “10 µM (% DMSO)” value was found to be 92.5 % DMSO.

For `C=CCN1CC[C@]23c4c5ccc(O)c4O[C@H]2C(=O)CC[C@@]3(O)[C@H]1C5` [Naloxone], in series [1] (setting [5]), the activation at 2 µM was -2.8%. For the same compound, the activation at 10 µM in series [1] (setting [6]) is -10.8%. Also, the viability at 0.1 µM in series [2] (setting [7]) is 94.2%. Moreover, in series [2] (setting [8]), the viability at 1 µM was 90.1%. The viability at 10 µM in series [2] (setting [9]) was found to be 85.6%.

With `O=C1CC[C@@]2(O)[C@H]3Cc4ccc(O)c5c4[C@@]2(CCN3CC2CC2)[C@H]1O5` [Naltrexone], in series [1] (setting [3]), the activation at 2 µM amounted to 12.8%. For the same compound, the activation at 10 µM in series [1] (setting [4]) was -5.6%. Besides, in series [2], the “0.1 µM (% DMSO)” value was 99.5 % DMSO, the “1 µM (% DMSO)” value amounted to 101.6 % DMSO and the “10 µM (% DMSO)” value was 97.3 % DMSO.

Regarding `Oc1ccc2c3c1O[C@H]1c4[nH]c5ccccc5c4C[C@@]4(O)[C@@H](C2)N(CC2CC2)CC[C@]314` [Naltrindole], the activation at 0.4 µM in series [1] (setting [10]) was -9.9%. Further, the activation at 2 µM in series [1] (setting [11]) was -35.8%. For the same compound, in series [2] (setting [12]), the viability at 0.1 µM is 80.6%. Moreover, the viability at 1 µM in series [2] (setting [13]) came out at 66.7%. In series [2] (setting [14]), the viability at 10 µM turned out to be 17.9%.

On to `C[C@]12CC[C@H]3[C@@H](CCC4=CC(=O)CC[C@@H]43)[C@@H]1CC[C@@H]2O` [Nandrolone], for which the activation at 2 µM in series [1] (setting [11]) was -5.9%. The activation at 10 µM in series [1] (setting [15]) was -26.5%. The viability at 0.1 µM in series [2] (setting [12]) was 94.4%. Moreover, in series [2] (setting [13]), the viability at 1 µM was found to be 98.5%. Besides, in series [2] (setting [14]), the viability at 10 µM is 96.2%.

Turning to `c1ccc2c(CC3=NCCN3)cccc2c1` [Naphazoline], the activation at 2 µM in series [1] (setting [5]) was -4.8%. Moreover, in series [1] (setting [6]), the activation at 10 µM is -45.4%. For the same compound, in series [2], the “0.1 µM (% DMSO)” value was 92.9 % DMSO, the “1 µM (% DMSO)” value was determined as 92.8 % DMSO and the “10 µM (% DMSO)” value is 78.6 % DMSO.

As to `COc1ccc2cc([C@H](C)C(=O)O)ccc2c1` [Naproxen], the activation at 2 µM in series [1] (setting [5]) came out at 1%. Further, the activation at 10 µM in series [1] (setting [6]) was -0.6%. Further, the viability at 0.1 µM in series [2] (setting [7]) came out at 91.1%. The viability at 1 µM in series [2] (setting [8]) was 95.1%. The viability at 10 µM in series [2] (setting [9]) is 94%.

For `CC(C)[C@H]1CC[C@H](C(=O)N[C@H](Cc2ccccc2)C(=O)O)CC1` [Nateglinide], the activation at 2 µM in series [1] (setting [11]) was -26.4%. In addition, the activation at 10 µM in series [1] (setting [15]) was -12.7%. For the same compound, the viability at 0.1 µM in series [2] (setting [12]) came to 93.4%. In series [2] (setting [13]), the viability at 1 µM was found to be 92.4%. The viability at 10 µM in series [2] (setting [14]) worked out at 99.5%.

In the case of `CCc1nn(CCCN2CCN(c3cccc(Cl)c3)CC2)c(=O)n1CCOc1ccccc1` [Nefazodone], the activation at 0.4 µM in series [1] (setting [10]) is -5.2%. For the same compound, the activation at 2 µM in series [1] (setting [11]) came to 0.4%. The viability at 0.1 µM in series [2] (setting [12]) was 99.6%. The viability at 1 µM in series [2] (setting [13]) stood at 111%. Besides, the viability at 10 µM in series [2] (setting [14]) stood at 42.8%.

Take `Cc1c(O)cccc1C(=O)N[C@@H](CSc1ccccc1)[C@H](O)CN1C[C@H]2CCCC[C@H]2C[C@H]1C(=O)NC(C)(C)C` [Nelfinavir]: in series [1] (setting [10]), the activation at 0.4 µM was -21.8%. In addition, the activation at 2 µM in series [1] (setting [11]) was -84.5%. Besides, the viability at 0.1 µM in series [2] (setting [12]) was found to be 100%. In series [2] (setting [13]), the viability at 1 µM was found to be 59%. Also, in series [2] (setting [14]), the viability at 10 µM was determined as 11.3%.

For the compound `Cc1ccnc2c1NC(=O)c1cccnc1N2C1CC1` [Nevirapine], the activation at 2 µM in series [1] (setting [11]) was 0.24%. Besides, the activation at 10 µM in series [1] (setting [15]) came to 15.9%. Moreover, the viability at 0.1 µM in series [2] (setting [12]) is 93.7%. The viability at 1 µM in series [2] (setting [13]) is 90.2%. The viability at 10 µM in series [2] (setting [14]) was found to be 93.3%.
